Several values for one entry are separate records, joined by “and”; a condition that tells them apart may be missing. Equal values may be shown once.
Tests used:
[1] = system: rat model with local cerebral ischemia; details: literature reports (13, 14, 15); cited from earlier work
[2] = system: formalin test; details: administered into spinal cord, literature reports (1, 2); cited from earlier work
[3] = system: rat model with occlusion in the middle cerebral artery; assay: Effect (II) of reducing infarct volume in a rat model with occlusion in the middle cerebral artery (permanent occlusion); assay type: in vivo
Protocol: Effect (II) of Reducing Infarct volume in a Rat Model with Occlusion in the Middle Cerebral Artery
The typical example of the compound of the present invention (the compound in Example 1) was compared with compounds disclosed in JP 8-508037-A (WO 94/25469, U.S. Pat. No. 5,750,525), which have affinity for AMPA receptors and is effective against cellular necrosis after ischemia in anoxia and hypocalcemia.
The compound of the present invention was dissolved in physiological saline to be adjusted to a dosage of 10 or 20 mg/kg/h just before use.
The control compound was dissolved in physiological saline to be adjusted to a dosage of 3 mg/kg/h just before use.
Occlusion in the middle cerebral artery was conducted according to the method described above. However, the middle cerebral artery was permanently occluded without removing the nylon embolus.
Two hours after the middle cerebral artery was occluded, a syringe containing the medium or the sample (10 or 20 mg/kg/h) was attached to a catheter for intravenous administration, and half (0.31 ml) of the dosage to be infused for 1 hour was intravenously administered for 1 minute. Thereafter, the medium or the sample was administered continuously for 6 hours at a rate of 0.616 ml/h by the use of a syringe pump for infusion. During administration and for 2 hours after administration was finished, the temperature of the rectum was maintained in the range of 37.0 to 38.5° C. in a system for controlling body temperature. After the body temperature control was finished, the animal was returned to a cage and maintained for 1 day in a breeding room.
Two hours after the middle cerebral artery was occluded, a syringe containing the medium or the sample (3 mg/kg/h) was attached to a catheter for intravenous administration, and the medium or the sample was administered continuously for 6 hours at a rate of 0.616 ml/h by means of the syringe pump for infusion. During administration and for 2 hours after administration was finished, the temperature of the rectum was maintained in the range of 37.0 to 38.5° C. in the system for controlling body temperature. After the body temperature control was finished, the animal was returned to a cage and maintained for 1 day in a breeding room.
The middle cerebral artery was permanently occluded by the nylon embolus, and the infarct volume was measured 24 hours after the occlusion was conducted.

[4] = system: mice in a formalin test; assay: Antalgic effect (II) on mice in a formalin test (comparison with morphine and indomethacin); assay type: in vivo
Protocol: Antalgic Effect (II) on Mice in a Formalin Test
The typical example of the compound of the present invention (the compound in Example 1) was compared with morphine and indomethacin in the same manner as in Pharmacological Experimental Example 5 above.
20.4 mg of the compound of the present invention was weighed, and 10.2 ml of 5.28% mannitol was added thereto to prepare 2 mg/ml (20 mg/kg) solution. Then, 3.8 ml of 5.28% mannitol was added to 3.8 ml of the 2 mg/ml solution to prepare 1 mg/ml (10 mg/kg) solution. Finally, 2.5 ml of 5.28% mannitol was added to 2.5 ml of the 1 mg/ml solution to prepare 0.5 mg/ml (5 mg/kg) solution. The test compound was weighed and prepared on the day when the experiment was conducted.
b-1) Morphine 17.0 mg of morphine purchased as a reagent was weighed, and 5.67 ml physiological saline was added thereto to form 3 mg/ml (30 mg/kg) solution. Then, 2.6 ml physiological saline was added to 1.3 ml of the 3 mg/ml solution to prepare 1 mg/ml (10 mg/kg) solution. Finally, 2.1 ml physiological saline was added to 0.9 ml of the 1 mg/ml solution to prepare 0.3 mg/ml (3 mg/kg) solution. The test compound was weighed and prepared on the day when the experiment was conducted.
12.9 mg of indomethacin purchased as a reagent was weighed, and 12.9 ml of 0.5% methyl cellulose (MC) was added thereto to form 1 mg/ml (10 mg/kg) suspension. Then, 2.24 ml of 0.5% MC was added to 0.96 ml of the 1 mg/ml suspension to prepare 0.3 mg/ml (3 mg/kg) suspension. Finally, 1.6 ml of 0.5% MC was added to 0.8 ml of the 0.3 mg/ml suspension to prepare 0.1 mg/ml (1 mg/kg) suspension. The test compound was weighed and prepared on the day when the experiment was conducted.
The treatment group by the compound of the present invention consisted of 4 groups in total, that is, a control group, a 5 mg/kg compound administration group, a 10 mg/kg compound administration group, and a 20 mg/kg compound administration group, and each group consisted of 5 animals.
The control group was given 0.1 ml of 5.28% mannitol per 10 g of the body weight via the tail vein. The compound of the present invention was administered via the tail vein at each concentration (0.5 mg/ml, 1 mg/ml, and 2 mg/ml) in an volume of 0.1 ml per 10 g of the body weight into the 5 mg/kg group, 10 mg/kg group and 20 mg/kg group, respectively.
The treatment group by morphine consisted of 4 groups in total, that is, a control group, a 3 mg/kg morphine administration group, a 10 mg/kg morphine administration group, and a 30 mg/kg morphine administration group, and each group consisted of 5 animals.
The control group was orally given 0.1 ml of physiological saline per 10 g of the body weight. Morphine was orally administered at each concentration (0.3 mg/ml, 1 mg/ml, and 3 mg/ml) in a volume of 0.1 ml per 10 g of the body weight into the 3 mg/kg group, 10 mg/kg group and 30 mg/kg group, respectively.
The treatment group by indomethacin consisted of 4 groups in total, that is, a control group, a 1 mg/kg indomethacin administration group, a 3 mg/kg indomethacin administration group, and a 10 mg/kg indomethacin administration group, and each group consisted of 5 animals.
The control group was orally given 0.1 ml of 0.5% MC per 10 g of the body weight. Indomethacin was orally administered at each concentration (0.1 mg/ml, […], and 1 mg/ml) in a volume of 0.1 ml per 10 g of the body weight into the 1 mg/kg group, 3 mg/kg group and 10 mg/kg group, respectively.
5.28% mannitol was administered via the tail vein into each group given the compound of the present invention or into the control group, and the animals were placed in a transparent plastic observation cage. 5 minutes later, 20 μl of 3% formalin was subcutaneously administered into the bottom of the left hind leg of each mouse. The duration of the behavior of mouse's licking the left hind leg after administration of formalin was measured for 5 minutes and used as an indication of pain. The duration was expressed in second. […]

CSCC[C@@H]1NC(=O)[C@H](CC(C)C)NC(=O)[C@H](CCCNC(=N)N)NC(=O)[C@H](CO)NC(=O)[C@@H]2CSSC[C@@H]3NC(=O)[C@H](CO)NC(=O)CNC(=O)[C@H]([C@@H](C)O)NC(=O)[C@H](CSSC[C@H](N)C(=O)N[C@@H](CCCCN)C(=O)NCC(=O)N[C@@H](CCCCN)C(=O)NCC(=O)N[C@@H](C)C(=O)N[C@@H](CCCCN)C(=O)N2)NC(=O)[C@H](CSSC[C@@H](C(N)=O)NC(=O)[C@H](CCCCN)NC(=O)CNC(=O)[C@H](CO)NC(=O)[C@H](CCCNC(=N)N)NC3=O)NC(=O)[C@H](CC(=O)O)NC(=O)[C@H](Cc2ccc(O)cc2)NC1=O [SNX-111]
protective action on nerve cells [1]: serves for protection against the liberation of glutamic acid from the cerebral cortex and against the subsequent disturbance of nerve cells
antalgic action [2]: has an antalgic action

O=c1[nH]c2cc(C(F)(F)F)c(N3CCOCC3)cc2n(CP(=O)(O)O)c1=O [control compound, {[3,4-Dihydro-7-(4-morpholinyl)-2,3-dioxo-6-(trifluoromethyl)-1-(2H)-quinoxalinyl]methyl}phosphonic acid, reference compound]
infarct volume compared with the control group ([3]; 3 mg/kg/h i.v.): no difference from the control group
Infarct volume in the cerebral cortex, Mean ([3]; 3 mg/kg/h i.v. (table: 3 mg/kg), from two hours after occlusion, 6 hours, 24 hours after occlusion): 284.9±10.9 mm^3 and 284.9 mm^3

COc1ccc2c(c1)c(CC(=O)O)c(C)n2C(=O)c1ccc(Cl)cc1 [indomethacin]
average left hind leg-licking time, Mean ([4]; 1 mg/kg p.o., formalin 90 minutes later): 87.8 s
average left hind leg-licking time, Mean ([4]; 3 mg/kg p.o., formalin 90 minutes later): 75.8 s
average left hind leg-licking time, Mean ([4]; 10 mg/kg p.o., formalin 90 minutes later): 84.0 s
antalgic effect in the formalin test ([4]; overall conclusion of the comparison): does not have any effect

CN1CC[C@]23c4c5ccc(O)c4O[C@H]2[C@@H](O)C=C[C@H]3[C@H]1C5 [morphine]
average left hind leg-licking time, Mean ([4]; 3 mg/kg p.o., formalin 30 minutes later): 68.2 s
average left hind leg-licking time, Mean ([4]; 10 mg/kg p.o., formalin 30 minutes later): 58.0 s
average left hind leg-licking time, Mean ([4]; 30 mg/kg p.o., formalin 30 minutes later): 29.6 s

ω-agatoxin IVA
protective action on nerve cells [1]: has a protective action on nerve cells

From US6737425B1, “N,N-substituted cyclic amine derivatives” (Eisai Co., Ltd., priority 1998, dated 2004)
